{"source": "patent US8889729B2", "about": "“Compositions for treating amyloid associated diseases” (Tel Aviv University Future Technology Development L.P., priority 2004, dated 2014)", "key": {"Aβ 1-40 polypeptide": {"molecular_target": "T1, Aβ 1-40 polypeptide (Homo sapiens, UniProt P05067)", "T1 construct": "Recombinant β-amyloid (Aβ 1-40, >98% pure) polypeptide; purchased rPeptide (Athens Ga., USA)", "T1 sequence (P05067 672-711 limits assumed)": "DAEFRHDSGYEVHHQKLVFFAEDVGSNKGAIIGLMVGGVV", "assay": "Transmission electron microscopy of ThT assay samples (Example 1)", "conditions": "10 μM compound, sample at about 192 hours", "experimental": "Transmission Electron Microscopy (TEM) Measurements: 10 μl samples from the ThT fluorescence assay were placed on 400-mesh copper grids (SPI supplies, West Chester Pa.) covered by carbon stabilized Formvar film. After 1 minute, excess fluid was removed, and the grids were negatively stained with 2% uranyl acetate in water for another two minutes. Microstructural features of the samples were viewed using a JEOL 1200EX electron microscope operating at 80 kV.\nIn order to obtain insight into the mechanism of inhibiting formation of β-amyloidpolypeptide type of amyloid fibrils, representative samples taken from the ThT fluorescence assay measurements described above after attainment of the plateau (at about 192 hours, FIG. 2), in the absence or presence of indole-3-carbinol, were viewed using electron microscopy."}, "Aβ1-40 [1]": {"molecular_target": "T2, Aβ1-40 (Homo sapiens, UniProt P05067)", "T2 construct": "Synthetic lyophilized β-amyloid polypeptides (Aβ 1-40 and Aβ 1-42, >98% pure); purchased Bachem (Bubendorf, Switzerland); host or cells: chemical synthesis", "T2 sequence (P05067 672-711 limits assumed)": "as above", "assay": "TEM ultrastructural analysis of Aβ1-40 samples from kinetic studies", "conditions": "50 μM compound, 14 days incubation", "experimental": "Transmission Electron microscopy (TEM): A 10 μl sample of the ThT fluorescence assay was placed on a 400 mesh copper grid covered by carbon-stabilized Formvar film (SPI Supplies, West Chester, Pa.). After 1.5 minutes, excess fluid was removed and the grids were negatively stained for 2 minutes with 10 μl of 2% uranyl acetate solution. Excess fluid was removed and the samples were viewed using a JEOL 1200EX electron microscope operating at 80 kV. Ultrastructural Analysis of amyloid fibril formation: The effect of the indole derivatives on the ultrastructural properties of the assembled Aβ was first evaluated by TEM measurements. Thus, TEM analysis was performed with samples of Aβ1-40 obtained from the kinetic studies described above after incubation for 14 days."}, "Aβ1-40 [2]": {"molecular_target": "T2, Aβ1-40", "assay": "Kinetics of Aβ1-40 fibrillogenesis inhibition, ThT fluorescence assay", "type": "biochemical", "experimental": "Aβ solutions: Synthetic lyophilized β-amyloid polypeptides (Aβ 1-40 and Aβ 1-42, >98% pure) were purchased from Bachem (Bubendorf, Switzerland). A 100 μM Aβ stock solution was prepared by dissolving Aβ1-40 or Aβ1-42 in dimethylsulfoxide (DMSO) and sonicating the resulting solution during 1 minute to avoid pre-aggregation. Aβ solutions were prepared by immediate dilution with 10 mM phosphate-buffered saline (100 mM NaCl, 0.5 mM EDTA, pH 7.4) to a final concentration of 10 μM (containing 10% (v/v) DMSO).\nIndole derivatives stock solutions were prepared by dissolving an indole derivative in DMSO, so as to achieve a concentration of 20 mM and then diluting the solution with 10 mM PBS buffer (100 mM NaCl, 0.5 mM EDTA, pH 7.4) to a final concentration of 100 μM (containing 0.5% (v/v) DMSO).\nThioflavin T fluorescence assay: Fibrillization of A[…] 1-42 polypeptide was monitored using a Thioflavin T (ThT) dye binding assay. A 10 μM Aβ solution (either Aβ1-40 or Aβ1-42) was prepared as described above and was immediately mixed with the indole derivative stock solutions (100 μM), so as to achieve a final concentration of 5 μM for Aβ and various concentrations of the indole derivative. For each measurement, ThT was added to a 0.1 ml sample, to give a final concentration of 0.3 μM ThT and 0.4 μM Aβ. The samples were incubated at 37° C. Fluorescence measurements, made after addition of the ThT solution to each sample at 37° C., were carried out using a Jobin Yvon FluoroMax-3 spectrometer (excitation 450 nm, 2.5 nm slit; emission 480 nm, 5 nm slit, integration time of 1 second). Background was subtracted from each sample. Each experiment was repeated in quadruplicate.\nKinetics Studies of Aβ1-40 Fibrillogenesis Inhibition: Aβ1-40, which has a slower fibrillogenesis rate [see, Jarrett et al. (1993) Biochemistry 32, 4693-4697] was used in these studies, in order to obtain better temporal resolution, assuming that a slower rate would allow more significant inhibition and a better understanding of the effect. 3-Hydroxyindole (denoted as 3HI), 4-hydroxyindole (denoted as 4HI) and indole-3-carbinol (denoted herein as I3C) were each added at concentrations of 5 μM, 25 μM, and 50 μM to a solution containing 5 μM of Aβ1-40 (prepared as described above) and the kinetics of Aβ1-40 fibrillogenesis inhibition was measured using the ThT fluorescence assay."}, "[3]": {"conditions": "5 μM, 25 μM and 50 μM tested, 5 μM Aβ1-40"}}}
{"smiles": "OCc1c[nH]c2ccccc12", "note": "[indole-3-carbinol]", "values": [{"measurement": "fibril morphology by electron microscopy", "setting": "Aβ 1-40 polypeptide", "value": "significantly shorter and less dense fiber type material"}, {"measurement": "fibril ultrastructure by TEM", "setting": "Aβ1-40 [1]", "value": "smaller amounts of amyloid fibril aggregates"}, {"measurement": "effect on nucleation phase (lag phase) compared with control", "setting": "Aβ1-40 [2]; [3]", "value": "no effect on the nucleation phase"}, {"measurement": "effect on slope of growth curve (polymerization phase)", "setting": "Aβ1-40 [2]; [3]", "value": "effect on the slope of the growth curve only at 50 μM"}, {"measurement": "inhibition at 50 µM", "setting": "Aβ1-40 [2]; 50 μM compound, 5 μM Aβ1-40, endpoint of experiment, read-out: inhibition level at final equilibrium phase", "value": "~50", "unit": "%"}]}
